The values below come from US8552013B2, “Heterocyclic compounds based on N6-substituted adenine, methods of their preparation, their use for preparation of drugs, cosmetic preparations and growth regulators, pharmaceutical preparations, cosmetic preparations and growth regulators containing these compounds” (USTAV Experimentalni Botaniky Akademie Ved Ceske Republiky, priority 2001, dated 2013).

In assay [1] the test system is human diploid fibroblasts (HCA cells). The assay is described as follows: Senescence, beta-galactosidase staining of human diploid fibroblasts. Format: cell-based. As to conditions: for SENESCENT CELLS (%) HCA25: passage 25; for SENESCENT CELLS (%) HCA45: passage 45; for SENESCENT CELLS (%) HCA80: passage 80. On the procedure:
In this example, human diploid fibroblasts (HCA cells of various passage levels: passage 25—designated HCA25; passage 45—designated HCA45; passage 80—designated HCA80) were stained for β-galactosidase activity. The medium used for cell cultivation was removed, the cells were washed twice in […], and fixed in 2-3 ml of fixing solution comprised of a 2% formaldehyde and 0.2% glutaraldehyde in PBS. The cells were incubated at room temperature for 5 minutes, then washed twice with PBS. The cells were subsequently incubated at 37° C. (without CO2) for 1 to 16 hours in 2-3 ml of a solution comprising potassium ferricyanide (5 mM), potassium ferrocyanide (5 mM), MgCl2 (2 mM), X-gal (5-bromo-4-chloro-3-indolyl-β-D-galactopyranoside) (1 mg/ml), in citric/phosphate buffer, pH 6.0). […] In this experiment, senescent cells, but not other cells were stained blue due to the action of β-galactosidase on the substrate (FIG. 4).

The test system of assay [2] is Triticum aestivum cv. Hereward leaf tips. The assay is described as follows: Retention of chlorophyll in excised wheat leaf tips. The note with it: for Activity (%) [10^−4 mol · l^−1 BAP = 100%]: chlorophyll retention at the concentration with highest activity. Format: in vivo. On the procedure: Seeds of winter wheat, Triticum aestivum cv. Hereward, were washed under running water for 24 hours and then sown on vermiculite soaked with Knop's solution. They were placed in the grown chamber at 25° C. with a 16/8 h light period at 50 μmol.m^−2.s^−1. After 7 days, the first leaf was fully developed and the second leaf had started to grow. A tip section of the first leaf, approximately 35 mm long, was removed from 5 seedlings and trimmed slightly to a combined weight of 100 mg. The basal ends of the five leaf tips were placed in the wells of a microtiter polystyrene plate containing 150 μl of a cytokinin solution each. The entire plate was inserted into a plastic box lined with paper tissues soaked in distilled water to prevent leaf sections from drying out. After a 96 h incubation in the dark at 25° C., the leaves were removed and chlorophyll extracted by heating at 80° C. for 10 min in 5 ml of 80% ethanol (v/v). The sample volume was then restored to 5 ml by the addition of 80% ethanol (v/v). The absorbency of the extract was recorded at 665 nm. In addition, chlorophyll extracts from fresh leaves and leaf tips incubated in deionised water were measured. From the obtained data, the concentration with highest activity was selected for each compound tested. Relative activity of the compound at this concentration was calculated (Tab. 6). The activity obtained for 10^−4 M 6-benzylaminopurine (BAP) was postulated as 100%. The values shown are means of five replicates and the whole experiment was repeated twice. The cytokinins to be tested were dissolved in dimethylsulfoxide (DMSO) and the solution brought up to 10^−3M with distilled water. This stock was further diluted in distilled water to concentrations ranging from 10^−8M to 10^−4M.

The subject of assay [3] is tobacco callus Nicotiana tabacum L. cv. Wisconsin 38. The assay is described as follows: Cytokinin-dependent tobacco callus growth. The note with it: fresh callus weight at the concentration with highest activity. Type of assay: cell-based. The protocol: Cytokinin-dependent tobacco callus Nicotiana tabacum L. cv. Wisconsin 38 was maintained at 25° C. in darkness on modified Murashige-Skoog medium, containing per 1 liter: 4 μmol nicotinic acid, 2.4 μmol pyridoxine hydrochloride, 1.2 μmol thiamine, 26.6 μmol glycine, 1.37 μmol glutamine, 1.8 μmol myo-inositol, 30 g of sucrose, 8 g of agar, 5.37 μmol α-naphtylacetic acid (NAA) and 0.5 μmol benzylaminopurine (BAP). Subcultivation was carried out every three weeks. Fourteen days before the bioassay, the callus tissue was transferred to the media without 6-benzylaminopurine (BAP). Biological activity was determined from the increase in fresh callus weight after four weeks of cultivation. Five replicates were prepared for each cytokinin concentration and the entire test was repeated twice. From the obtained data, the concentration with highest activity was selected for each compound tested. Relative activity of the compound at this concentration was calculated (Tab. 6). The activity obtained for 10^−4 M 6-benzylaminopurine (BAP) was postulated as 100%. The cytokinins to be tested were dissolved in dimethylsulfoxide (DMSO) and the solution brought up to 10^−3M with distilled water. This stock was further diluted in the respective media used for the biotest to concentrations ranging from 10^−8M to 10^−4M.

In assay [4] the test system is Amaranthus caudatus cotyledon/hypocotyl explants. The experiment in a line: Amaranthus bioassay, betacyanin content. Format: in vivo. The note with it: betacyanin content at the concentration with highest activity. On the procedure: Standard Amaranthus bioassay was performed with several modifications. The seeds of Amaranthus caudatus var. atropurpurea were surface-sterilised in 10% N-chlorobenzenesulfonamide (w/v) for 10 min and washed 5 times in deionized water. They were placed in 14 cm Petri dishes containing paper tissues saturated with deionized water. After 72 h of cultivation at 25° C. in darkness, the roots of the seedlings were cut off. The explants, consisting of two cotyledons and hypocotyls, were placed in 5 cm Petri dishes on two layers of filter paper soaked in 1 ml of incubation medium containing 10 μmol NA2HPO4-KH2PO4, pH 6.8, 5 μmol tyrosine and the cytokinin to be tested. There were 20 explants per dish. The procedure was carried out under a green safe light in a darkroom. After a 48 h of incubation at 25° C. in darkness, betacyanin was extracted by freezing the explants in 4 ml […] acetic acid. The concentration of betacyanin was determined by comparing the absorbance at 537 nm and 620 nm as follows: ΔA=[…] nm-A620 nm. From the obtained data, the concentration with highest activity was selected for each compound tested. Relative activity of the compound at this concentration was calculated (Tab. 6). […] The values shown in table 8 are means of five replicates and the entire test was repeated twice. The cytokinins to be tested were dissolved in dimethylsulfoxide (DMSO) and the solution brought up to 10^-3M with distilled water. This stock was further diluted in the respective media used for the biotest to concentrations ranging from 10^-8M to 10^-4M.

For the compound `NCc1ccc(Cl)c(N)c1N` [2,3-diamino-4-chlorobenzylamine], in assay [1], the “SENESCENT CELLS (%) HCA25” value was 4%, the “SENESCENT CELLS (%) HCA45” value was found to be 3% and the “SENESCENT CELLS (%) HCA80” value amounted to 17%.

`Oc1c(Cl)ccc(CNc2ncnc3nc[nH]c23)c1O` [2,3-dihydroxy-4-chlorobenzylamino, 6-(2,3-dihydroxy-4-chlorobenzylamino)purine]: in assay [1], the “SENESCENT CELLS (%) HCA25” value worked out at 3%, the “SENESCENT CELLS (%) HCA45” value is 3% and the “SENESCENT CELLS (%) HCA80” value is recorded as 14%.

As for `COc1ccc(CNc2ncnc3nc[nH]c23)c(O)c1O` [2,3-dihydroxy-4-methoxybenzylamino, 6-(2,3-dihydroxy-4-methoxybenzylamino)purine], in assay [1], the “SENESCENT CELLS (%) HCA25” value was determined as 3%, the “SENESCENT CELLS (%) HCA45” value stood at 4% and the “SENESCENT CELLS (%) HCA80” value amounted to 17%.

For the compound `Oc1cc(CNc2ncnc3nc[nH]c23)c(O)cc1Cl` [2,5-dihydroxy-4-chlorobenzylamino, 6-(2,5-dihydroxy-4-chlorobenzylamino)purine], in assay [1], the “SENESCENT CELLS (%) HCA25” value amounted to 5%, the “SENESCENT CELLS (%) HCA45” value was found to be 4% and the “SENESCENT CELLS (%) HCA80” value amounted to 23%.

`COc1cc(O)c(CNc2ncnc3nc[nH]c23)cc1O` [2,5-dihydroxy-4-methoxybenzylamino, 6-(2,5-dihydroxy-4-methoxybenzylamino)purine]: in assay [1], the “SENESCENT CELLS (%) HCA25” value is reported as 5%, the “SENESCENT CELLS (%) HCA45” value amounted to 3% and the “SENESCENT CELLS (%) HCA80” value came out at 22%.

`Oc1cc(Cl)cc(O)c1CNc1ncnc2nc[nH]c12` [2,6-dihydroxy-4-chlorobenzylamino, 6-(2,6-dihydroxy-4-chlorobenzylamino)purine]: in assay [1], the “SENESCENT CELLS (%) HCA25” value amounted to 3%, the “SENESCENT CELLS (%) HCA45” value turned out to be 3% and the “SENESCENT CELLS (%) HCA80” value is 16%.

For `COc1cc(O)c(CNc2ncnc3nc[nH]c23)c(O)c1` [2,6-dihydroxy-4-methoxybenzylamino, 6-(2,6-dihydroxy-4-methoxybenzylamino)purine], in assay [1], the “SENESCENT CELLS (%) HCA25” value was found to be 4%, the “SENESCENT CELLS (%) HCA45” value was determined as 3% and the “SENESCENT CELLS (%) HCA80” value is 13%.

Take `CC(=O)Oc1ccccc1CNc1ncnc2nc[nH]c12` [2-acetoxybenzylamino, 6-(2-acetoxybenzylamino)purine]: in assay [1], the “SENESCENT CELLS (%) HCA25” value was 6%, the “SENESCENT CELLS (%) HCA45” value is recorded as 5% and the “SENESCENT CELLS (%) HCA80” value is on record as 32%.

Turning to `CC(=O)c1ccccc1CNc1ncnc2nc[nH]c12` [2-acetylbenzylamino, 6-(2-acetylbenzylamino)purine], in assay [1], the “SENESCENT CELLS (%) HCA25” value was 3%, the “SENESCENT CELLS (%) HCA45” value is listed as 4% and the “SENESCENT CELLS (%) HCA80” value was found to be 25%.

As for `Nc1nc(NCc2cccc(O)c2)c2[nH]cnc2n1` [2-amino-6-(3-hydroxybenzylamino)purine], the “Activity (%) [10^−4 mol · l^−1 BAP = 100%]” value in assay [2] is 121 (±7) %.

In the case of `Nc1cccc(Cl)c1CNc1ncnc2nc[nH]c12` [2-amino-6-chlorobenzylamine, 6-(2-amino-6-chlorobenzylamino)purine], in assay [1], the “SENESCENT CELLS (%) HCA25” value came to 3%, the “SENESCENT CELLS (%) HCA45” value stood at 4% and the “SENESCENT CELLS (%) HCA80” value is 16%.

Take `Oc1cccc(CNc2nc(Cl)nc3nc[nH]c23)c1` [2-chlor-6-(3-hydroxybenzylamino)purine]: the “Activity (%) [10^−4 mol · l^−1 BAP = 100%]” value in assay [2] is given as 140 (±13) %. Moreover, in assay [2] (wheat leaf tips, 96 h in the dark), the “concentration with highest activity” value is 10^−4 mol · l^−1.

Take `Oc1c(Cl)cccc1CNc1ncnc2nc[nH]c12` [2-hydroxy-3-chlorobenzylamino, 6-(2-hydroxy-3-chloroxybenzylamino)purine]: in assay [1], the “SENESCENT CELLS (%) HCA25” value was determined as 4%, the “SENESCENT CELLS (%) HCA45” value turned out to be 3% and the “SENESCENT CELLS (%) HCA80” value was 14%.

On to `CSc1nc(NCc2cccc(O)c2)c2[nH]cnc2n1` [2-methylthio-6-(3-hydroxybenzylamino)purine], for which the “Activity (%) [10^−4 mol · l^−1 BAP = 100%]” value in assay [2] is 50.5 (±23.5) %.

Take `CC(=O)Oc1cccc(CNc2ncnc3nc[nH]c23)c1` [3-acetoxybenzylamino, 6-(3-acetoxybenzylamino)purine]: in assay [1], the “SENESCENT CELLS (%) HCA25” value was 4%, the “SENESCENT CELLS (%) HCA45” value was determined as 6% and the “SENESCENT CELLS (%) HCA80” value is 27%.

As to `CC(=O)c1cccc(CNc2ncnc3nc[nH]c23)c1` [3-acetylbenzylamino, 6-(3-acetylbenzylamino)purine], in assay [1], the “SENESCENT CELLS (%) HCA25” value came out at 5%, the “SENESCENT CELLS (%) HCA45” value turned out to be 5% and the “SENESCENT CELLS (%) HCA80” value is given as 28%.

As for `Nc1cc(CNc2ncnc3nc[nH]c23)ccc1Cl` [3-amino-4-chlorobenzylamine, 6-(3-amino-4-chlorobenzylamino)purine], in assay [1], the “SENESCENT CELLS (%) HCA25” value was determined as 5%, the “SENESCENT CELLS (%) HCA45” value is on record as 5% and the “SENESCENT CELLS (%) HCA80” value was determined as 22%.

As to `O=C(O)c1cc(Nc2ncnc3nc[nH]c23)ccc1O` [3-carboxy-4-hydroxyanilino, 6-(3-carboxy-4-hydroxyanilino)purine], in assay [1], the “SENESCENT CELLS (%) HCA25” value is reported as 4%, the “SENESCENT CELLS (%) HCA45” value is reported as 2% and the “SENESCENT CELLS (%) HCA80” value is listed as 26%.

As for `O=C(O)c1ccc(Nc2ncnc3nc[nH]c23)cc1Cl` [3-chloro-4-carboxyanilino, 6-(3-chloro-4-carboxyanilino)purine], in assay [1], the “SENESCENT CELLS (%) HCA25” value is 5%, the “SENESCENT CELLS (%) HCA45” value was 2% and the “SENESCENT CELLS (%) HCA80” value turned out to be 25%.

`COc1cccc(CNc2ncnc3nc[nH]c23)c1OC` [6-(2,3-dimethoxybenzylamino)purine]: the “Activity (%) [10^−4 mol · l^−1 BAP = 100%]” value is reported as 109 (±5) % in assay [2] and 8.5 (±2) % in assay [3]. The “activity (%) [10^−5 mol · l^−1 BAP = 100%]” value in assay [4] is reported as 22 (±3) %.

In the case of `Clc1ccc(CNc2ncnc3nc[nH]c23)c(Cl)c1` [6-(2,4-dichlorobenzylamino)purine], the figures for the “Activity (%) [10^−4 mol · l^−1 BAP = 100%]” value in assay [2] and in assay [3] were 0% and 11 (±3) %, respectively. For the same compound, the “activity (%) [10^−5 mol · l^−1 BAP = 100%]” value in assay [4] was 19 (±8) %.

For `COc1ccc(CNc2ncnc3nc[nH]c23)cc1OC` [6-(3,4-dimethoxybenzylamino)purine], the “Activity (%) [10^−4 mol · l^−1 BAP = 100%]” value in assay [2] is listed as 43 (±17) %. Moreover, the “activity (%) [10^−5 mol · l^−1 BAP = 100%]” value in assay [4] was 27 (±6) %.

Regarding `c1ccc(Nc2ncnc3nc[nH]c23)cc1` [Anilino, 6-anilinopurine], in assay [1], the “SENESCENT CELLS (%) HCA25” value was found to be 3%, the “SENESCENT CELLS (%) HCA45” value is 4% and the “SENESCENT CELLS (%) HCA80” value is on record as 27%.
